In US8758825B2, “Sequestered antagonist formulations” (Purdue Pharma L.P., priority 2001, dated 2014):

Experiments:
[1] = cited from earlier work; for Duration of action: after oral doses
[2] = in comparison to a 15 mg dose of hydrocodone
From the text: In certain preferred embodiments, the opioid agonist is oxycodone or hydrocodone.

Row | SMILES | Equianalgesic dose, Calculated Dose [2] [mg] | further results
1 | O=C1CC[C@@]2(O)[C@H]3Cc4ccc(O)c5c4[C@@]2(CCN3CC2CC2)[C@H]1O5 [naltrexone] |  | Duration of action [1]: ~24 h; Protein binding ([1]; in vivo): approximately 21%; Oral bioavailability ([1]; oral administration): 5-40%; Time of absorption ([1]; oral administration): ≤ 1 h
2 | COc1ccc2c3c1O[C@H]1[C@@H](O)C=C[C@H]4[C@@H](C2)N(C)CC[C@@]341 [Codeine] | 90.0 | 
3 | C[C@H]1[C@H]2Cc3ccc(O)cc3[C@]1(C)CCN2CC1CC1 [cyclazocine] |  | Duration of action [1]: ~24 h
4 | CN1CC[C@]23CCCC[C@H]2[C@H]1Cc1ccc(O)cc13 [Levorphanol] | 1.8 | 
5 | COc1ccc2c3c1OC1C(=O)CC[C@H]4[C@@H](C2)N(C)CC[C@]314 (stereo partly shown) [Hydrocodone, 4,5-epoxy-3-methoxy-17-methylmorphinan-6-one] | 15.0 | 
6 | CCC(=O)C(CC(C)N(C)C)(c1ccccc1)c1ccccc1 (stereo not shown) [Methadone] | 9.0 | 
7 | COc1ccc2c3c1O[C@H]1C(=O)CC[C@@]4(O)[C@@H](C2)N(C)CC[C@]314 [Oxycodone, 4,5-expoxy-14-hydroxy-3-methoxy-17-methylmorphinan-6-one] | 13.5 | 
